Source: the supplement of paper PMC4862054

How the values were obtained:
Details in all cases: incubation time: 72 h
HDQ-P1 [1] = experiment: normalised response (% of control), CellTiter-Glo; higher = more viable cells (100 = DMSO, 0 = benzethonium chloride kill control)
Summary of the method: (§1)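 Plates were normalised with 0.1 % DMSO as 100 and a positive kill control as 0. Breast cancer cell lines in 20 µl suspension had been seeded into 384-well plates with compound at 5 concentrations in 10-fold steps over a compound-specific 10,000-fold range, incubated 72 h, and read for CellTox Green fluorescence (485/520 nm) followed by CellTiter-Glo luminescence. Each value is the normalised signal at a single concentration.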

Hs578T [2] = experiment: as above
Summary of the method: as §1

HCC1937 [3] = experiment: as above
Summary of the method: as §1

MDA-MB-436 [4] = experiment: as above
Summary of the method: as §1

BT-549 [5] = experiment: as above
Summary of the method: as §1

MFM-223 = experiment: as above
Summary of the method: as §1

CAL-120 [6] = experiment: as above
Summary of the method: as §1

CAL-148 [7] = experiment: as above
Summary of the method: as §1

CAL-51 = experiment: as above
Summary of the method: as §1

MDA-MB-468 = experiment: as above
Summary of the method: as §1

CAL-85-1 [8] = experiment: as above
Summary of the method: as §1

MDA-MB-231 [9] = experiment: as above
Summary of the method: as §1

HCC1599 [10] = experiment: as above
Summary of the method: as §1

HCC1143 [11] = experiment: as above
Summary of the method: as §1

MDA-MB-453 [12] = experiment: as above
Summary of the method: as §1

MCF-10A [13] = experiment: as above
Summary of the method: as §1

BT-474 = experiment: as above
Summary of the method: as §1

SK-BR-3 = experiment: as above
Summary of the method: as §1

Hs578T [14] = experiment: normalised response (% of control), CellTox Green; higher = less cell death (100 = DMSO, 0 = benzethonium chloride kill control)
Summary of the method: as §1

MDA-MB-436 [15] = experiment: as above
Summary of the method: as §1

BT-549 [16] = experiment: as above
Summary of the method: as §1

CAL-120 [17] = experiment: as above
Summary of the method: as §1

CAL-148 [18] = experiment: as above
Summary of the method: as §1

CAL-85-1 [19] = experiment: as above
Summary of the method: as §1

MDA-MB-231 [20] = experiment: as above
Summary of the method: as §1

DU-4475 = experiment: as above
Summary of the method: as §1

HCC1599 [21] = experiment: as above
Summary of the method: as §1

HCC1143 [22] = experiment: as above
Summary of the method: as §1

MDA-MB-453 [23] = experiment: as above
Summary of the method: as §1

MCF-10A [24] = experiment: as above
Summary of the method: as §1

HDQ-P1 [25] = experiment: as above
Summary of the method: as §1

HCC1937 [26] = experiment: as above
Summary of the method: as §1

Compound | normalised response (HDQ-P1 [1]) [%] | normalised response (Hs578T [2]) [%] | normalised response (HCC1937 [3]) [%] | normalised response (MDA-MB-436 [4]) [%] | normalised response (BT-549 [5]) [%] | normalised response (MFM-223) [%] | normalised response (CAL-120 [6]) [%] | normalised response (CAL-148 [7]) [%] | normalised response (CAL-51) [%] | normalised response (MDA-MB-468) [%] | normalised response (CAL-85-1 [8]) [%] | normalised response (MDA-MB-231 [9]) [%] | normalised response (HCC1599 [10]) [%] | normalised response (HCC1143 [11]) [%] | normalised response (MDA-MB-453 [12]) [%] | normalised response (MCF-10A [13]) [%] | normalised response (BT-474) [%] | normalised response (SK-BR-3) [%] | normalised response (Hs578T [14]) [%] | normalised response (MDA-MB-436 [15]) [%] | normalised response (BT-549 [16]) [%] | normalised response (CAL-120 [17]) [%] | normalised response (CAL-148 [18]) [%] | normalised response (CAL-85-1 [19]) [%] | normalised response (MDA-MB-231 [20]) [%] | normalised response (DU-4475) [%] | normalised response (HCC1599 [21]) [%] | normalised response (HCC1143 [22]) [%] | normalised response (MDA-MB-453 [23]) [%] | normalised response (MCF-10A [24]) [%] | normalised response (HDQ-P1 [25]) [%] | normalised response (HCC1937 [26]) [%]
CC/C(=C(\c1ccccc1)c1ccc(OCCN(C)C)cc1)c1ccccc1 [Tamoxifen] (1000 nM) | 106 | 106 | 102 | 97.7 | 96.1 | 97.9 | 94.8 | 103 | 81.8 | 93.8 | 99.8 | 103 | 107 | 104 | 93.1 | 104 | 95.9 | 103 | 89.4 | 108 | 94 | 102 | 106 | 101 | 103 | 105 | 103 | 122 | 110 | 111 |  | 
Cc1cc2c(F)c(Oc3ncnn4cc(OC[C@@H](C)O)c(C)c34)ccc2[nH]1 [Brivanib] (1000 nM) |  |  |  |  |  |  |  |  |  |  |  |  |  |  |  |  |  |  | 98.4 | 68.3 | 95.7 | 100 | 99.3 | 67.4 | 102 | 102 | 80.2 | 104 | 92.5 | 105 | 68.8 | 112
CC/C(=C(\c1ccccc1)c1ccc(OCCN(C)C)cc1)c1ccccc1 [Tamoxifen] (10000 nM) |  |  |  |  |  |  |  |  |  |  |  |  |  |  |  |  |  |  | 74.1 |  | 86.1 | 83.5 | 80.1 |  | 13.6 | 91.1 | 80.4 | 108 | 35.6 | 81.5 | 105 | 3.06
CC(C)C(=O)Nc1ccc([N+](=O)[O-])c(C(F)(F)F)c1 [Flutamide] (10000 nM) |  |  |  |  |  |  |  |  |  |  |  |  |  |  |  |  |  |  | 124 | 75.1 | 111 | 98.1 |  | 103 | 112 | 98.6 | 103 | 96.4 | 102 | 106 | 92.3 | 101
O=C(O)CC[C@H]1CC[C@@](c2cc(F)ccc2F)(S(=O)(=O)c2ccc(Cl)cc2)CC1 [MK-0752] (1000 nM) |  |  |  |  |  |  |  |  |  |  |  |  |  |  |  |  |  |  | 91.9 | 96.9 | 107 | 102 |  | 70.6 | 111 | 104 | 109 | 88.8 |  | 114 | 110 | 104
C[C@@H](C(=O)O)c1ccc(-c2ccccc2)c(F)c1 [Tarenflurbil] (1000 nM) | 94.7 | 101 | 94.7 | 100 | 99.3 | 95 | 96.5 | 91.7 | 119 | 94.8 | 98.8 | 95 | 106 | 92.5 | 96 | 90.1 | 92 | 87.8 |  | 60.6 | 108 | 100 |  | 87.9 |  | 96.6 | 96.3 | 105 | 102 | 91.4 | 65.7 | 115
O=NN(CCCl)C(=O)NC1CCCCC1 [Lomustine] (10000 nM) |  |  |  |  |  |  |  |  |  |  |  |  |  |  |  |  |  |  | 113 | 86.5 | 93.2 | 92.5 | 94.2 | 108 |  | 98.9 | 103 | 108 | 100 | 88.2 | 98.9 | 57.4
NC(=O)NO [Hydroxyurea] (10000 nM) | 100 | 109 | 98.4 | 97.7 | 90.8 | 105 | 95.7 | 101 | 45.2 | 107 | 98.2 | 103 | 111 | 105 | 114 | 109 | 92.7 | 110 |  | 84.6 | 115 | 95.1 | 98.2 | 116 | 113 | 103 | 103 | 98.7 | 106 | 99.2 |  | 
NC(=O)c1cccc2cn(-c3ccc([C@@H]4CCCNC4)cc3)nc12 [MK-4827] (10000 nM) |  |  |  |  |  |  |  |  |  |  |  |  |  |  |  |  |  |  | 118 | 105 | 103 | 97.3 | 79.6 | 70.3 | 139 | 89.2 | 97.4 | 127 | 105 | 94.8 | 97.9 | 
CCN(CC)CCOc1ccc(C(=C(Cl)c2ccccc2)c2ccccc2)cc1 [Clomifene] (10000 nM) |  |  |  |  |  |  |  |  |  |  |  |  |  |  |  |  |  |  | -60.1 | 89.1 | 82.5 |  | 79.6 | 25.3 | -87.9 | 53.4 | 48.6 | 112 | 18.9 | 60.3 |  | -34.5
Cc1cc2c(F)c(Oc3ncnn4cc(OC[C@@H](C)O)c(C)c34)ccc2[nH]1 [Brivanib] (100 nM) | 104 | 98.8 | 97.4 | 110 | 94 | 107 | 109 | 105 | 80.6 | 108 | 97.1 | 107 | 126 | 107 | 97 | 111 | 107 | 103 |  | 81.2 | 117 | 104 | 104 | 103 | 115 | 104 | 99.8 | 79.8 | 103 | 107 | 106 | 101
Cc1c(N)nc([C@H](CC(N)=O)NC[C@H](N)C(N)=O)nc1C(=O)N[C@H](C(=O)N[C@H](C)[C@@H](O)[C@H](C)C(=O)N[C@H](C(=O)NCCc1nc(-c2nc(C(=O)NCCC[S+](C)C)cs2)cs1)[C@@H](C)O)[C@@H](OC1OC(CO)C(O)C(O)C1OC1OC(CO)C(O)C(OC(N)=O)C1O)c1cnc[nH]1 (stereo partly drawn) [Bleomycin] (1000 nM) | 103 | 86.5 | 94.2 | 82.3 | 66.7 | 99.6 | 91.9 | 82.1 | 49 | 86.1 | 91.9 | 88.3 | 105 | 83.1 | 91 | 96 | 91.3 | 84.8 | 67.4 | 84.5 | 92 | 92.9 | 58.4 | 92.7 | 67.9 | 97.5 | 94.8 | 99.9 | 99.1 | 92.5 | 54.8 | 
NC(=O)NO [Hydroxyurea] (100000 nM) |  |  |  |  |  |  |  |  |  |  |  |  |  |  |  |  |  |  |  |  | 109 | 101 | 88.3 | 85.8 | 118 | 97.6 | 104 | 118 | 91.5 | 96.7 | 110 | 111
CC[C@@H]1C(=O)N(C)c2cnc(Nc3ccc(C(=O)N[C@H]4CC[C@H](N5CCN(CC6CC6)CC5)CC4)cc3OC)nc2N1C(C)C [Volasertib] (100 nM) | 76.6 | 54.6 | 81 | 50.1 | 25.9 | 42 | 64.4 | 53 | 23.7 | 36.5 | 53 | 48.5 | 45.6 | 50.5 | 77.3 | 58.5 | 63.6 | 16.1 | 61 | 64.2 | 79 | 89 | 31.8 | 57 | -0.74 | 93.2 | 72.2 | 81.8 | 98 | 24.1 | -27.2 | 
C[C@]12C=CC(=O)C=C1CC[C@@H]1[C@@H]2C(=O)C[C@@]2(C)[C@H]1CC[C@]2(O)C(=O)CO [Prednisone] (10000 nM) |  |  |  |  |  |  |  |  |  |  |  |  |  |  |  |  |  |  |  | 107 | 99.6 | -48.9 | 100 | 91.9 | 114 | 103 | 102 | 118 | 100 | 104 | 114 | 98.8
CN1CCN(c2nc(C3=C(c4c[nH]c5ccccc45)C(=O)NC3=O)c3ccccc3n2)CC1 [Sotrastaurin] (10000 nM) |  |  |  |  |  |  |  |  |  |  |  |  |  |  |  |  |  |  | 118 | 68.3 | 99.7 | 94.2 |  | 128 | 115 | 100 | 102 | 93.5 | 107 | 104 | 102 | 68.4
